Data set [1] can be described thus: Cell viability, MTT assay, HaCaT cells. The note with it: human.
Protocol: (§1) The determination of the cell viability of HaCaT cells and the cell toxicity of A549 and A375 cell lines was performed according to Myriagkou et al. [57], via the MTT (3-(4,5-dimethylthiazol-2-yl)-2,5-diphenyltetrazolium bromide) assay. In a 96-well plate, cells were seeded at specific concentrations (30 × 10^4 cells/mL for HaCaT cells and 20 × 10^4 cells/mL for A549 and A375 cells) and incubated (37 °C, 5% CO2) for 24 h. Following this first incubation period, solutions of the tested compounds at various concentrations were added to the cells, and the plates were incubated for an additional 24 h. Upon the second incubation period, the appropriate volume of MTT solution (1 mg/mL in PBS, filtrated through a 0.22-μm filter) was added to each well, and the plate was incubated for 4 h, during which formazan crystals were formed. The crystals were dissolved by addition of 100 μL od DMSO in each cell and after 30 min of stirring, the absorbance was recorded at 450 nm using a microplate reader. All tests were undertaken on three replicates and compared to the control (untreated cells), the blank (medium), and the reference control (cells treated with 100 μM silibinin).
(§2) The cytotoxicity of the novel compounds was also measured via the mehtylthiazol tetrazolium (MTT) assay.
For the next data set, the system named is A375 cell line. The data set is described as follows: Cytotoxicity, MTT assay, A375 cells. The note with it: Homo sapiens, A-375, 24 h, read-out: % Cytotoxicity A375 (100 μΜ).
The next data set relates to A549 cell line. The data set can be described thus: Cytotoxicity, MTT assay, A549 cells. The note with it: Homo sapiens, A549, 24 h, read-out: % Cytotoxicity A549 (100 μΜ). On the technique in general: Tetrazolium assays rely on reduction of a dye to a coloured formazan, in cell work by metabolically active cells.
Data set [2] can be described thus: Inhibition of linoleic acid peroxidation induced by AAPH radical. The note with it: 100 μM, 37 °C, pH 7.4. On the procedure: The in vitro assays were performed at a concentration of 100 µM (a 10 mM stock solution in DMSO was used, from which several dilutions were made for the determination of IC50 values), at least in triplicate, and the standard deviation of absorbance was less than 10% of the mean. The compounds were diluted in 0.1% DMSO under sonification in an appropriate buffer in several dilutions. Statistical comparisons were made using Student’s t-test. A statistically significant difference was defined as p < 0.05. The results were compared to the corresponding reference compounds.
The determination of the ability of the synthesized compounds to inhibit linoleic acid peroxidation induced by the radical initiator 2,2-Azobis(2-amidinopropane) dihydrochloride (AAPH) was performed according to Hadjipavlou-Litina et al.. Ten microliters of the 16 mM sodium linoleate solution were added to the UV cuvette containing 0.93 mL of a 0.05 M phosphate buffer, pH 7.4, pre-thermostated at 37 °C. The oxidation reaction was initiated at 37 °C under air by the addition of 50 µL of a 40 mM AAPH solution, which was used as a free radical initiator. Oxidation was carried out in the presence of aliquots (10 µL) in the assay without antioxidants and monitored at 234 nm. Lipid oxidation was recorded in the presence of the same level of DMSO served as a negative control. results are compared to the appropriate standard compound Trolox.
In an attempt to assess the in vitro antioxidant potential of the synthesized compounds, their inhibitory activity against lipid peroxidation of linoleic acid sodium salt was examined, induced by AAPH radical under atmospheric oxygen at 37 °C. The anti-lipid peroxidation was recorded with UV spectrophotometrically. The assay is a quick and widely used method for the assessment of antioxidant activity.

Data set [3] concerns the target T1, soybean lipoxygenase (LOX) (Glycine max, UniProt P08170).
T1 sequence (P08170 1-839): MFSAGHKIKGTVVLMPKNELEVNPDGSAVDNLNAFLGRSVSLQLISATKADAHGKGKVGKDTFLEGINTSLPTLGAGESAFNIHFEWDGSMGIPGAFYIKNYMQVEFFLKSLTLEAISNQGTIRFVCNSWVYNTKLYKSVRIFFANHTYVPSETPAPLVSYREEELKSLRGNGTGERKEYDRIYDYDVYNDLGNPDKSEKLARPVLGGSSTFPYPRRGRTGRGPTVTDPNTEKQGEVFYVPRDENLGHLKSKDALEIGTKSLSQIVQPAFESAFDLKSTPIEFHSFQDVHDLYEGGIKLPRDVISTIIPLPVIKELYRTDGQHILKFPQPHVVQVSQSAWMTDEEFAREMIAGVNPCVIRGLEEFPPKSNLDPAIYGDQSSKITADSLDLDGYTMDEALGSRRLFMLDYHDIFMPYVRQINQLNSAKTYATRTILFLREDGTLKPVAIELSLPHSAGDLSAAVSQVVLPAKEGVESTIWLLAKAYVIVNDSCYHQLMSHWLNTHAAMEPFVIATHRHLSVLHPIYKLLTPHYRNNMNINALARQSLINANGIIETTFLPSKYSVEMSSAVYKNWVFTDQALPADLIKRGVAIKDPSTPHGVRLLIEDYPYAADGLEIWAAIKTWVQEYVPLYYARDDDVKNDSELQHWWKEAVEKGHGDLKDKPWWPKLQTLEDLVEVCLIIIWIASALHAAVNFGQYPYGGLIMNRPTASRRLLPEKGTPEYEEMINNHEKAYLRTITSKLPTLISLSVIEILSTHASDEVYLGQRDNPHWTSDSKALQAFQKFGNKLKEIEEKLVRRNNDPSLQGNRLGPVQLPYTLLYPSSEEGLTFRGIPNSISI
The data set is described as follows: Soybean LOX inhibition in vitro. It is filed as biochemical. The note with it: sodium linoleate substrate. On the procedure: The compounds were diluted in 0.1% DMSO under sonification in an appropriate buffer in several dilutions. Statistical comparisons were made using Student’s t-test. A statistically significant difference was defined as p < 0.05.
The determination of the inhibition of soybean LOX for the synthesized compounds was performed according to Hadjipavlou-Litina et al.. The tested compounds were incubated at room temperature with sodium linoleate (0.1 mM) and 0.2 mL of enzyme solution (1/9 × 10^−4 w/v in saline). The method was based on the conversion of sodium linoleate to 13-hydroperoxylinoleic acid at 234 nm. In order to determine the […] values, different concentrations were used.
As evidence of anti-inflammatory activity, the quinolinone derivatives were examined for their ability to inhibit soybean lipoxygenase (LOX). LOX catalyzes the cleavage of arachidonic acid to leukotrienes that are found to play a crucial role in the pathogenesis of some inflammatory diseases.

Protocol for A375 cell line: as §1, §2
Protocol for A549 cell line: as §1, §2

For the compound `C#CCNC(=O)c1c(O)c2ccccc2n(C)c1=O` [4a, 4-hydroxy-1-methyl-2-oxo-N-(prop-2-yn-1-yl)-1,2-dihydroquinoline-3-carboxamide], the viability (commonly the share of living cells, or the viability signal relative to a control) at 24 h, 100 µM in data set [1] was found to be 61.5%. In addition, the cytotoxicity at 100 µM with A375 cell line amounted to 7%; in the data set on A549 cell line, 0%. In data set [2], the “Inhibition of Linoleic Acid Peroxidation (% at 100 μΜ)” value (“Inhibition … (% at 100 μΜ)” for short) was determined as 42.7%.
`C#CCNC(=O)c1c(O)c2ccccc2n(Cc2ccccc2)c1=O` [4b, 1-benzyl-4-hydroxy-2-oxo-N-(prop-2-yn-1-yl)-1,2-dihydroquinoline-3-carboxamide] came in with a viability at 24 h, 100 µM in data set [1] of 88.7%. For the same compound, the values for the cytotoxicity at 100 µM with A375 cell line and with A549 cell line were 7.6% and 45.7%, respectively. Besides, in data set [3], 43.2 µM corresponded to half-maximal inhibition (IC50). For the same compound, the “Inhibition … (% at 100 μΜ)” value in data set [2] amounted to 14.7%.
In data set [1], `C#CCNC(=O)c1c(O)c2ccccc2n(CC)c1=O` [4c, 1-ethyl-4-hydroxy-2-oxo-N-(prop-2-yn-1-yl)-1,2-dihydroquinoline-3-carboxamide] had a viability at 24 h, 100 µM of 90.5%. Further, the results for the cytotoxicity at 100 µM in the data set on A375 cell line and in the data set on A549 cell line were 0.2% and 16.4%, respectively. The IC50 (as a rule, the concentration that inhibits the measured activity by half) in data set [3] worked out at 22.5 µM. In addition, in data set [2], the “Inhibition … (% at 100 μΜ)” value was found to be 100%.
Taken in the same sequence, the figures for `C#CCNC(=O)c1c(O)c2ccccc2n(CCCCCCCC)c1=O` [4e, 4-hydroxy-1-octyl-2-oxo-N-(prop-2-yn-1-yl)-1,2-dihydroquinoline-3-carboxamide] were 76.2%, 22.6%, 33.7%, 48.3 µM and 34.9%.
On to `C#CCNC(=O)c1c(O)c2ccccc2n(CC=Cc2ccccc2)c1=O` [4g, 1-cinnamyl-4-hydroxy-2-oxo-N-(prop-2-yn-1-yl)-1,2-dihydroquinoline-3-carboxamide], for which, in data set [1], the viability at 24 h, 100 µM amounted to 100%. Further, the cytotoxicity at 100 µM in the data set on A375 cell line was found to be 11.7%; with A549 cell line, 35.2%. The IC50 in data set [3] was 51.2 µM. The “Inhibition … (% at 100 μΜ)” value in data set [2] is reported as 27.6%.
Take `Cn1c(=O)c(C(=O)NCc2cn(Cc3ccccc3)nn2)c(O)c2ccccc21` [5a, N-((1-benzyl-1H-1,2,3-triazol-4-yl)methyl)-4-hydroxy-1-methyl-2-oxo-1,2-dihydroquinoline-3-carboxamide]: in data set [1], the viability at 24 h, 100 µM was determined as 100%. In addition, the cytotoxicity at 100 µM in the data set on A375 cell line turned out to be 0%; with A549 cell line, 24.2%. Further, half-maximal inhibition in data set [3] (IC50) was put at 10 µM. Further, in data set [2], the “Inhibition … (% at 100 μΜ)” value is reported as 98.0%.
`O=C(NCc1cn(Cc2ccccc2)nn1)c1c(O)c2ccccc2n(Cc2ccccc2)c1=O` [5b, 1-benzyl-N-((1-benzyl-1H-1,2,3-triazol-4-yl)methyl)-4-hydroxy-2-oxo-1,2-dihydroquinoline-3-carboxamide] showed a viability at 24 h, 100 µM in data set [1] of 86.5%. Also, the cytotoxicity at 100 µM in the data set on A375 cell line was 0%; with A549 cell line, 49.9%. Besides, in data set [3], the IC50 was 46 µM. Also, the “Inhibition … (% at 100 μΜ)” value in data set [2] was 89.0%.
For `CCn1c(=O)c(C(=O)NCc2cn(Cc3ccccc3)nn2)c(O)c2ccccc21` [5c, N-((1-benzyl-1H-1,2,3-triazol-4-yl)methyl)-1-ethyl-4-hydroxy-2-oxo-1,2-dihydroquinoline-3-carboxamide], the viability at 24 h, 100 µM in data set [1] worked out at 100%. For the same compound, the cytotoxicity at 100 µM in the data set with A375 cell line and with A549 cell line was 0% each time. In addition, 51.5 µM corresponded to half-maximal inhibition in data set [3] (IC50). Moreover, the “Inhibition … (% at 100 μΜ)” value in data set [2] was found to be 94.0%.
As for `CCn1c(=O)c(C(=O)NCc2cn(CCCc3ccccc3)nn2)c(O)c2ccccc21` [5d, 1-ethyl-4-hydroxy-2-oxo-N-((1-(3-phenylpropyl)-1H-1,2,3-triazol-4-yl)methyl)-1,2-dihydroquinoline-3-carboxamide], the viability at 24 h, 100 µM in data set [1] is 99.6%. Also, the cytotoxicity at 100 µM in the data set on A375 cell line came to 10.5%; in the data set with A549 cell line it was 28.9%. Further, 47.5 µM corresponded to half-maximal inhibition in data set [3] (IC50). Further, in data set [2], the “Inhibition … (% at 100 μΜ)” value is given as 92.0%.
The matching figures for `CCn1c(=O)c(C(=O)NCc2cn(C/C=C/c3ccccc3)nn2)c(O)c2ccccc21` [5e, (E)-N-((1-cinnamyl-1H-1,2,3-triazol-4-yl)methyl)-1-ethyl-4-hydroxy-2-oxo-1,2-dihydroquinoline-3-carboxamide]: 27.6%, 35.2%, 7.3%, 45 µM and 91.0%.
`O=C(NCc1cn(Cc2ccccc2)nn1)c1c(O)c2ccccc2n(CCCc2ccccc2)c1=O` [5f, N-((1-benzyl-1H-1,2,3-triazol-4-yl)methyl)-4-hydroxy-2-oxo-1-(3-phenylpropyl)-1,2-dihydroquinoline-3-carboxamide] had a viability at 24 h, 100 µM in data set [1] of 100%. Further, the cytotoxicity at 100 µM in the data set on A375 cell line turned out to be 23.7%; in the data set with A549 cell line, 12.5%. The same compound had an IC50 in data set [3] of 50 µM. Also, in data set [2], the “Inhibition … (% at 100 μΜ)” value stood at 98.0%.
As for `CC(C)=CCn1c(=O)c(C(=O)NCc2cn(Cc3ccccc3)nn2)c(O)c2ccccc21` [5g, N-((1-benzyl-1H-1,2,3-triazol-4-yl)methyl)-4-hydroxy-1-(3-methylbut-2-en-1-yl)-2-oxo-1,2-dihydroquinoline-3-carboxamide], the viability at 24 h, 100 µM in data set [1] stood at 100%. Further, the cytotoxicity at 100 µM in the data set with A375 cell line was 46.8%; in the data set with A549 cell line, 13.4%. In addition, it took 75 µM to reach half-maximal inhibition in data set [3] (IC50). Besides, the “Inhibition … (% at 100 μΜ)” value in data set [2] was 83.0%.
As to `CCn1c(=O)c(C(=O)NCc2cn(CC=C(C)C)nn2)c(O)c2ccccc21` [5i, 1-ethyl-4-hydroxy-N-((1-(3-methylbut-2-en-1-yl)-1H-1,2,3-triazol-4-yl)methyl)-2-oxo-1,2-dihydroquinoline-3-carboxamide], in data set [3], the IC50 was 70 µM. Moreover, the “Inhibition … (% at 100 μΜ)” value in data set [2] is given as 96.0%.
`COc1cc(C2Oc3cc([C@H]4Oc5cc(O)cc(O)c5C(=O)[C@@H]4O)ccc3OC2CO)ccc1O` (some centres unmarked) [Silibinin, silibinin, reference compound]: in data set [1], the viability at 24 h, 100 µM was 47.2%. In addition, the cytotoxicity at 100 µM in the data set on A375 cell line was determined as 12.6%; in the data set with A549 cell line it was 57.4%.
As for `Cc1c(C)c2c(c(C)c1O)CCC(C)(C(=O)O)O2` (centres unmarked) [Trolox, reference compound], the “Inhibition … (% at 100 μΜ)” value in data set [2] amounted to 88.0%.

The values are drawn from paper PMC12839112, “Synthesis and Bioactivity Assessment of Novel Quinolinone–Triazole Hybrids” (Biomolecules, 2025).
